Values of other authors in patent publication US20240293347A1, “COMPOSITION AND METHODS OF TREATMENT USING TRANSDERMAL HORMONE SUPPLEMENTATION” (Xygenyx Inc., priority 2023, published 2024).

Legend:
[1] = used as penetration enhancer for transdermal drugs
[2] = in the human body

Compound	increase of drug uptake via the transdermal route (factor) [1]	biological half-life [2]
CC(C)[C@@H]1CC[C@@H](C)C[C@H]1O [Menthol]	≥ 10	–
CC12CCC(CC1)C(C)(C)O2 [eucalyptol, 1,8-epoxy-p-menthane]	more than 10	–
HGH: hormone comprising a peptide chain that is synthesized in the pituitary gland	–	10-20 minutes
